The subject of data set [1] is Rattus norvegicus. As to the kind of experiment: Area under curve in rat after p.o. administration. To be noted: in vivo, po.
For data set [2], the target named is T1, C-C chemokine receptor type 5 (Homo sapiens, UniProt P51681). As to the kind of experiment: Inhibitory concentration of compound to displace GP120 from […] chemokine receptor 5.
Data set [3] relates to HeLa. As to the kind of experiment: In vitro antiviral activity against HIV-1 infected HeLa cells. The format is functional. As to conditions: Homo sapiens.
The nature of data set [4]: in vivo. As to conditions: rat, plasma.
Data set [5] is described as follows: in vivo. As to conditions: rat.
Data set [6] in a line: Oral bioavailability in rat. As to conditions: in vivo.
Data set [7] can be described thus: Inhibition of HIV-1 infectivity using peripheral bloodmonon uclear cells against the BAL-1 strain. The class given is functional. As to conditions: Homo sapiens.
Data set [8] deals with Rattus norvegicus. In words: Volumes of distribution in rat after po administration. To be noted: in vivo.
A short description of data set [9]: Inhibition of HIV-1 infectivity using peripheral bloodmonon uclear cells against the BAL-1 strain in the presence of 50% normal human serum (NHS). The class given is functional.
Data set [10] deals with T1, C-C chemokine receptor type 5. As to the kind of experiment: Displacement of [125I]-MIP-1 alpha from human […] chemokine receptor 5 expressed in CHO cells. The class given is cell-based. (Loss of bound radioactivity is the signal in a displacement assay; it reports binding, not function.)
Data set [11] can be described thus: Clearance rat (dosed at 0.5 mpk IV and 2.0 mpk po.). To be noted: plasma, 0.5 mg/kg, read-out: Clp. The format is ADME, organism-based.
A short description of data set [12]: Oral bioavailability in dog (dose 0.5 mg/kg i.v. and 2.0 mg/kg p.o.). The format is ADME, organism-based, Canis lupus familiaris. As to conditions: in vivo.
Data set [13] in a line: Half life in dog (dosed at 0.5 mpk iv and 2.0 mpk orally). The format is ADME, organism-based, Canis lupus familiaris. To be noted: in vivo.
Data set [14] relates to Canis familiaris. In words: Oral AUCN in dog (dosed at 2.0 mpk po ). To be noted: in vivo, 2.0 mg/kg.
A short description of data set [15]: Plasma clearance in dog (dosed at 0.5 mpk iv and 2.0 mpk orally). The format is ADME, organism-based, Canis lupus familiaris. As to conditions: 0.5 mg/kg, read-out: Clp.
The nature of data set [16]: Oral AUCN in monkey (dosed at 0.5 mpk iv ). The class given is ADME, organism-based. As to conditions: cercopithecidae, in vivo, 0.5 mg/kg.
Data set [17] is described as follows: Half life in monkey (dosed at 0.5 mpk iv and 2.0 mpk orally). To be noted: cercopithecidae, in vivo. The format is ADME, organism-based.
Data set [18] can be described thus: Oral bioavailability in monkey (dosed at 0.5 mpk iv and 2.0 mpk orally). The format is ADME, organism-based. To be noted: cercopithecidae, in vivo, 2 mg/kg.
Data set [19] can be described thus: Plasma clearance in monkey (dosed at 0.5 mpk iv and 2.0 mpk orally). The format is ADME, organism-based. As to conditions: cercopithecidae, 0.5 mg/kg, read-out: Clp.
Data set [20] deals with Rattus norvegicus. As to the kind of experiment: Area under curve in rat after peroral administration. The class given is ADME, organism-based. To be noted: in vivo, po.
The target in data set [21] is T1, C-C chemokine receptor type 5. In words: Inhibitory concentration of compound to displace GP120 from […] chemokine receptor 5. The source holds these as a separate data set.

We go through 14 compounds from ChEMBL document CHEMBL1147445, “Antagonists of human CCR5 receptor containing 4-(pyrazolyl)piperidine side chains. Part 2: Discovery of potent, selective, and orally bioavailable compounds” (Bioorg Med Chem Lett, 2004).

T1 sequence (P51681 whole entry): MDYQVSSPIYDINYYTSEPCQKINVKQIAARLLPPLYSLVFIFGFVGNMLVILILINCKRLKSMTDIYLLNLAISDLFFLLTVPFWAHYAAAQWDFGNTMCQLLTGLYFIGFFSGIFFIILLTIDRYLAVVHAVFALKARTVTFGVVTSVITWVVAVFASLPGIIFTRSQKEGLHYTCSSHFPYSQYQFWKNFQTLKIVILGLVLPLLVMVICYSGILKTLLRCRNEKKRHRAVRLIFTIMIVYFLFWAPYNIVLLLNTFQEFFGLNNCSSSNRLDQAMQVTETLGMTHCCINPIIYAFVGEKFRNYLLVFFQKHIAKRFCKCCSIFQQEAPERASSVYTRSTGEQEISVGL

As for `CCn1nc(Cc2ccccc2)cc1C1CCN(C[C@H]2CN([C@H](CC(C)C)C(=O)O)C[C@@H]2c2ccccc2)CC1`, the “AUC N” value in data set [1] was 0.13 uM hr dose-1. The IC50 in data set [2] was 2.9 nM. In [3], this compound returned a concentration for an effect of 90% (IC90) of 3.7 nM. For the same compound, the clearance in data set [4] was 43 mL/min/kg. The half-life in data set [5] is 72 min. Besides, the bioavailability in [6] was 17%. In addition, the IC95 in data set [7] is less than 8 nM; in data set [9] it was 125 nM. The compound also showed a Vdss in data set [8] of 2.1 L/kg.

`CCn1nc(Cc2ccccc2)cc1C1CCN(C[C@H]2CN([C@@](C)(C(=O)O)C(C)C)C[C@@H]2c2cccc(F)c2)CC1` had an IC90 in [3] of 300 nM. This compound also returned an IC50 in data set [10] of 1.6 nM.

Take `CCn1nc(Cc2ccccc2)cc1C1CCN(C[C@H]2CN([C@@H](C(=O)O)C(C)C)C[C@@H]2c2ccccc2)CC1`: the clearance in [11] was 12.6 mL/min/kg. In addition, the “AUC N” value in data set [1] came out at 0.45 uM hr dose-1. Moreover, the concentration for half-maximal inhibition (IC50) in data set [2] was determined as 2.8 nM. Also, the concentration for an effect of 90% (IC90) in data set [3] is 11 nM. The half-life in data set [5] is 336 min. In data set [6], this compound displayed a bioavailability of 17%.

As for `CCn1nc(Cc2ccccc2)cc1C1CCN(C[C@H]2CN([C@@H](C(=O)O)C(C)(C)C)C[C@@H]2c2cccc(F)c2)CC1`, the values for the bioavailability in [12] and in data set [6] were 44% and 71%, respectively. Moreover, the “AUC N” value in data set [1] worked out at 3.7 uM hr dose-1; in data set [14], 1 uM hr dose-1. In addition, the figures for the half-life in data set [13] and in [5] were 38.4 min and 47.4 min, respectively. In data set [3], this compound yielded an IC90 of less than 0.14 nM. The clearance is 5.7 mL/min/kg in data set [4] and 13 mL/min/kg in data set [15]. Moreover, the IC50 in data set [10] came to 0.8 nM.

On to `CCn1nc(Cc2ccccc2)cc1C1CCN(C[C@H]2CN([C@H](CC3CCC3)C(=O)O)C[C@@H]2c2cccc(F)c2)CC1`, for which the clearance in data set [11] came out at 46 mL/min/kg. Further, in data set [1], the “AUC N” value came out at 0.05 uM hr dose-1. This compound also returned an IC90 in data set [3] of 0.4 nM. The half-life in data set [5] is 42.6 min. For the same compound, the bioavailability in [6] amounted to 7.3%. Moreover, the IC95 in [7] was less than 0.8 nM; in [9] it was 35 nM. The compound also returned an IC50 in [10] of 1.2 nM.

As to `CCn1nc(Cc2ccccc2)cc1C1CCN(C[C@H]2CN([C@@H](C(=O)O)C(C)C)C[C@@H]2c2cccc(F)c2)CC1`, the figures for the “AUC N” value in data set [16], in [1] and in data set [14] were 0.08 uM hr dose-1, 1.1 uM hr dose-1 and 1.9 uM hr dose-1, respectively. For the same compound, the values for the bioavailability in [12], in data set [6] and in data set [18] were 20%, 11% and 4.7%, respectively. The half-life in [17] is 78 min; in data set [13] it was 204 min; in [5], 84 min. This compound came in with an IC90 in data set [3] of 3.7 nM. Besides, the clearance came to 3.2 mL/min/kg in [4], 20 mL/min/kg in [19] and 3.5 mL/min/kg in data set [15]. Further, the IC95 in [7] amounted to 22 nM; in data set [9], 350 nM. In [10], the 50% inhibitory concentration (IC50) turned out to be 1.5 nM.

Take `CC[C@H](C)[C@H](C(=O)O)N1C[C@H](CN2CCC(c3cc(Cc4ccccc4)nn3CC)CC2)[C@@H](c2cccc(F)c2)C1`: it took 0.4 nM to reach the 90% level in data set [3] (IC90). For the same compound, the concentration for half-maximal inhibition (IC50) in data set [10] was found to be 0.9 nM.

Consider `CCn1nc(Cc2ccccc2)cc1C1CCN(C[C@H]2CN([C@H](CC3CC3)C(=O)O)C[C@@H]2c2cccc(F)c2)CC1`, for which the clearance in data set [11] amounted to 81 mL/min/kg. For the same compound, the “AUC N” value in data set [1] was determined as 0.03 uM hr dose-1. Further, it took 0.4 nM to reach the 90% level in data set [3] (IC90). Moreover, the half-life in data set [5] was 15 min. In addition, the bioavailability in data set [6] came out at 8.1%. The IC95 in data set [7] is less than 8 nM; in data set [9], 31 nM. In [10], this compound came in with an IC50 of 1.2 nM.

`CCn1nc(Cc2ccccc2)cc1C1CCN(C[C@H]2CN([C@@H](C(=O)O)C3CCC3)C[C@@H]2c2ccccc2)CC1`: in data set [11], the clearance was determined as 60 mL/min/kg. The “AUC N” value in data set [1] was determined as 0.06 uM hr dose-1. The compound also displayed a concentration for an effect of 90% (IC90) in data set [3] of 3.7 nM. This compound also showed a half-life in data set [5] of 60 min. Also, in data set [6], the bioavailability is 11%. For the same compound, the 50% inhibitory concentration (IC50) in data set [10] amounted to 1.6 nM.

`CCn1nc(Cc2ccccc2)cc1C1CCN(C[C@H]2CN([C@@H](C(=O)O)C3CCCCC3)C[C@@H]2c2cccc(F)c2)CC1` had an IC90 in [3] of 0.4 nM. The half-maximal inhibitory concentration (IC50) in data set [10] was 1.6 nM.

For `CCn1nc(Cc2ccccc2)cc1C1CCN(C[C@H]2CN([C@@H](C(=O)O)C3CCCCC3)C[C@@H]2c2ccccc2)CC1`, the “AUC N” value in data set [20] was determined as 0.02 uM hr dose-1. In data set [3], this compound displayed an IC90 of 0.4 nM. Moreover, the IC95 in [7] and in data set [9] was less than 8 nM in each case. In data set [21], this compound gave a half-maximal inhibitory concentration (IC50) of 2 nM.

Take `CCn1nc(Cc2ccccc2)cc1C1CCN(C[C@H]2CN([C@](C)(C(=O)O)C(C)C)C[C@@H]2c2cccc(F)c2)CC1`: the “AUC N” value in [1] is listed as 0.62 uM hr dose-1. The compound also displayed an IC90 in data set [3] greater than 300 nM. The compound also showed a clearance in data set [4] of 10 mL/min/kg. The half-life in data set [5] was 44.4 min. In data set [6], this compound returned a bioavailability of 21%. In [10], this compound registered an IC50 of 5.5 nM. The compound further returned a Vdss in [8] of 0.43 L/kg.

Regarding `CC[C@@H](C)[C@H](C(=O)O)N1C[C@H](CN2CCC(c3cc(Cc4ccccc4)nn3CC)CC2)[C@@H](c2cccc(F)c2)C1`, in data set [1], the “AUC N” value amounted to 0.16 uM hr dose-1. The compound further came in with an IC90 in data set [3] of less than 0.14 nM. The clearance in data set [4] is 25 mL/min/kg. Moreover, the half-life in data set [5] was 32.4 min. The same compound had a bioavailability in data set [6] of 13%. This compound returned a half-inhibitory concentration (IC50) in [10] of 0.8 nM.

As to `CCC(CC)[C@H](C(=O)O)N1C[C@H](CN2CCC(c3cc(Cc4ccccc4)nn3CC)CC2)[C@@H](c2cccc(F)c2)C1`, in data set [1], the “AUC N” value amounted to 0.8 uM hr dose-1. The 90% effect level in data set [3] (IC90) was put at 0.4 nM. The compound also showed a clearance in data set [4] of 19 mL/min/kg. Moreover, in data set [5], the half-life was 35.4 min. Moreover, the bioavailability in [6] is 52%. In data set [10], the IC50 was found to be 0.9 nM.

Broadly, the IC50 is the point on the concentration scale where inhibition reaches its midpoint. In general, IC90 refers to the concentration needed for an effect of 90%. As usually defined, the half-life is how long it takes for the measured level to halve. For orientation: bioavailability means dose-corrected exposure relative to a reference, in per cent. By IC95 is commonly meant the concentration needed for an effect of 95%.
